Results taken from patent US8350036B2, “Bisnaphthalimidopropyl derivative compounds with anti-parasite and anti-cancer activity” (Universidade Do Porto, priority 2006, dated 2013).
Read-outs that look alike come from different tables or passages of the source.

Key:
CaCo-2 colon carcinoma = assay: Cytotoxicity against CaCo-2 cells by MTT assay; assay type: cell-based; details: Homo sapiens, 0.01-40 μM
Method: Cytotoxity was evaluated for CaCo-2 colon carcinoma using the MTT assay with protocols appropriate for the individual test system.^11,13 CaCo-2 cells were maintained in Earle's Minimum Essential Medium (Sigma), supplemented with 10% fetal calf serum (Biosera), 2 mM L-glutamine (Sigma), 1% non-essential amino acids (Sigma), 100 IU mL^−1 penicillin and 100 μg mL^−1 streptomycin (Sigma). Exponentially growing cells were plated at 2×10^4 cells cm^−2 into 96-well plates and incubated for 24 h before the addition of drugs. Stock solutions of compounds were initially dissolved in 20% DMSO and further diluted with fresh complete medium. After 24 and 48 h of incubation at 37° C., the medium was removed and 200 μl of MTT reagent (1 mg/mL) in serum free medium was added to each well. The plates were incubated at 37° C. for 4 h. At the end of the incubation period, the medium was removed and pure DMSO (200 μl) was added to each well. The metabolized MTT product dissolved in DMSO was quantified by reading the absorbance at 560 nm on a micro plate reader (Dynex Technologies, USA). IC50 values are defined, as the drug concentrations required to reduce the absorbance by 50% of the control values. The IC50 values were calculated from the equation of the logarithmic line determined by fitting the best line (Microsoft Excel) to the curve formed from the data. The IC50 value was obtained from the equation for y=50 (50% value).

Solubility = assay type: physicochemical; details: effect of longer alkyl central chain
[1] = tested on: Leishmania infantum promastigotes; assay: Growth of luciferase-expressing promastigotes (luciferase assay); assay type: cell-based; details: for IC50: Leishmania infantum; for parasite growth inhibition, promastigote: range of concentration 0.39 to 12.50 μM, FIG. 1
Method: Leishmania infantum (clone MHOM/MA671TMA-P263) promastigotes transfected with reporter gene that encode to the luciferase enzyme (Roy et al, 2000) were grown at 27° C. in RPMI medium (Gibco) supplemented with 10% of heat inactivated fetal bovine serum (FBS-Gibco), 2 mM L-glutamine (Gibco), 20 mM Hepes (Gibco), 100 U/ml penicillin (Gibco) and 100 μg/ml streptomycin (Gibco). The parasites (10^6/ml) in the logarithmic phase (2 days of culture) were incubated with a serial range of concentrations of each drug for 3 days at 27° C. and the growth of parasites was determined by using the luciferase activity using luciferin as subtract.
FIG. 1. […] The results are representative of 5 assays made independently. […] The growth curves represented indicate the percentage growth related to the control for each concentration after luciferase activity determination. Each point represents a mean of 3 assays±STD.
(§1) Cytotoxicity determined by luciferase assay. The results were obtained after treatment of different parasite forms with a range of different drug concentrations 0.30 to 100 μM after 72 h of incubation. The results were representative of medium±SD at least 5 assays.

[2] = tested on: axenic amastigote of Leishmania infantum; assay: Growth of luciferase-expressing axenic amastigotes (luciferase assay); assay type: cell-based; details: for parasite growth inhibition, axenic amastigote: FIG. 1; for IC50: Leishmania infantum, axenic amastigotes, 72 h of incubation, 37° C.
Method: (§2) The axenic amastigote of Leishmania infantum (clone MHOM/MA671TMA-P263) transfected with reporter gene that encode to the luciferase enzyme (Roy et al, 2000) were grown at 37° C. with 5% CO2 in a cell-free medium called MAA (medium for axenically grown amastigote). The medium MAA/20, consisted of modified medium 199 (Hanks' balanced salts) supplemented with 0.5% soya trypto-casein, 15 mM D-glucose, 5 mM L-glutamine, 4 mM NaHCO3, 0.023 mM bovine hemin, 25 mM HEPES final pH, 6.5 and 20% inactivated fetal calf serum. The parasites were incubated with different concentrations during 3 days at 37° C. with 5% CO2. The growth of the parasites was done by measuring the luciferase activity using luciferin as a substract. The intracellular amastigotes of L. infantum were cultured in a macrophage differentiated human leukemia monocyte cell line (THP-1 cells). The THP-1 cells were differentiated during 2 days with 20 ng/ml of PMA in RPMI-1640 medium supplemented with 10% FCS, 2 mM glutamine, 100 IU of penicillin/ml and 100 μg/ml of streptomycin. The non differentiated cells were washed with prewarmed medium and the adherent cells sinfected with luciferase-expressing axenic amastigotes at a parasite/macrophage ratio of 3:1 for 4 h at 37° C. with 5% CO2. Noninternalized parasites were removed and serial dilutions of each drug were made in the RPMI medium supplemented with 10% FCS. After 3 days of drug exposure, wells containing adherent differentiated THP-1 cells were washed and luciferase activity was determined.
FIG. 1. […] The results are representative of 5 assays made independently. The promastigote and axenic amastigote were incubated with a serial range of drug concentrations 0.30 to 12.5 μM, at 27° C. and 3.125 to 100 μM at 37° C. in 5% CO2, respectively, during 3 days. The growth curves represented indicate the percentage growth related to the control for each concentration after luciferase activity determination. Each point represents a mean of 3 assays±STD.
as §1

[3] = tested on: intracellular amastigotes of L. infantum; assay: Intracellular amastigotes in differentiated THP-1 cells (luciferase assay); assay type: cell-based, Leishmania infantum; details: for IC50: Leishmania infantum, intracellular amastigotes in THP-1 cells, 72 h of incubation, read-out: IC50(μM) Amastigote intracellular; for parasite growth inhibition, intracellular amastigote: range of concentration 0.39 to 12.50 μM
Method: as §2
Cytotoxicity determined by luciferase assay. […] The results were representative of medium±SD at least 5 assays.

[4] = most solvents; previously reported (Kong et al, 2000); cited from earlier work
[5] = 24 h drug exposure, read-out: IC50 (μM) 24 h
[6] = 48 h drug exposure, read-out: IC50 (μM) 48 h
[7] = promastigote, unit inferred, read-out: IC50±SD promastigote
[8] = promastigotes, 72 h of incubation, 27° C., read-out: IC50(μM) Promastigotes

Compound	IC50 (CaCo-2 colon carcinoma; [5]) [µM]	IC50 (CaCo-2 colon carcinoma; [6]) [µM]	aqueous solubility (Solubility)	IC50 [1, 7] [µM]	IC50 [1, 8] [µM]	parasite growth inhibition, promastigote [1]	parasite growth inhibition, axenic amastigote [2]	IC50 [2] [µM]	IC50 [3] [µM]	parasite growth inhibition, intracellular amastigote [3]	solubility [4]
O=C1c2cccc3cccc(c23)C(=O)N1CCCNCCCCCCCCCCNCCCN1C(=O)c2cccc3cccc(c23)C1=O [BNIPDadec, Bisnaphthalimidopropyldiaminodecane]	0.77	0.36	helps aqueous solubility								
O=C1c2cccc3cccc(c23)C(=O)N1CCCNCCCCCCCCCCCCNCCCN1C(=O)c2cccc3cccc(c23)C1=O [BNIPDadod, Bisnaphthalimidopropyldiaminododecane]	4.5	2.7									
O=C1c2cccc3cccc(c23)C(=O)N1CCCNCCCCCCCNCCCN1C(=O)c2cccc3cccc(c23)C1=O [BNIPDahep, Bisnaphthalimidopropyldiaminoheptane]	3.2	0.94									
O=C1c2cccc3cccc(c23)C(=O)N1CCCNCCCCCCNCCCN1C(=O)c2cccc3cccc(c23)C1=O [BNIPDahex, Bisnaphthalimidopropyldiaminohexane]	0.65	2									
O=C1c2cccc3cccc(c23)C(=O)N1CCCNCCCCCCCCCNCCCN1C(=O)c2cccc3cccc(c23)C1=O [BNIPDanon, Bisnaphthalimidopropyldiaminononane]	3.6	0.67	helps aqueous solubility	2.09 ± 0.54	2.09 ± 0.54	dose dependent inhibition of parasite growth	dose dependent inhibition of parasite growth	17.4 ± 0.97	6.03 ± 0.67	dose dependent inhibition of parasite growth	
O=C1c2cccc3cccc(c23)C(=O)N1CCCNCCCCCCCCNCCCN1C(=O)c2cccc3cccc(c23)C1=O [BNIPDaoct, Bisnaphthalimidopropyldiaminooctane]	6.2	3.2	helps aqueous solubility	≤ 0.39	≤ 0.39	dose dependent inhibition of parasite growth	didn't inhibited the parasite growth up to 50 μM	≥ 50	2.43 ± 0.19	dose dependent inhibition of parasite growth	
O=C1c2cccc3cccc(c23)C(=O)N1CCCNCCCCCNCCCN1C(=O)c2cccc3cccc(c23)C1=O [BNIPDapen, Bisnaphthalimidopropyldiaminopentane]	11	6.5									
O=C1c2cccc3cccc(c23)C(=O)N1CCCNCCNCCNCCCN1C(=O)c2cccc3cccc(c23)C1=O [BNIPDeta, Bisnaphthalimidopropyldietiltriamine]	21.7	22.3		0.96 ± 0.17	0.96 ± 0.17	dose dependent inhibition of parasite growth	dose dependent inhibition of parasite growth	6.97 ± 0.2	9.52 ± 0.56	dose dependent inhibition of parasite growth	
O=C1c2cccc3cccc(c23)C(=O)N1CCCNCCCNCCCNCCCN1C(=O)c2cccc3cccc(c23)C1=O [BNIPDpta, Bisnaphthalimidopropyldipropiltriamine]	5	3.2		1.09 ± 0.12	1.09 ± 0.12	dose dependent inhibition of parasite growth	dose dependent inhibition of parasite growth	5.24 ± 0.93	4.22 ± 1.07	dose dependent inhibition of parasite growth	
O=C1c2cccc3cccc(c23)C(=O)N1CCCNCCCCNCCCN1C(=O)c2cccc3cccc(c23)C1=O [BNIPPut, Bisnaphthalimidopropylputrescine]				0.4 ± 0.15	0.4 ± 0.15	dose dependent inhibition of parasite growth	dose dependent inhibition of parasite growth	5.49 ± 0.67	4.53 ± 0.54	dose dependent inhibition of parasite growth	not soluble in most solvents
O=C1c2cccc3cccc(c23)C(=O)N1CCCNCCCCNCCCNCCCN1C(=O)c2cccc3cccc(c23)C1=O [BNIPSpd, Bisnaphthalimidopropylespermidine]	0.15	0.47		1.86 ± 0.82	1.86 ± 0.82	dose dependent inhibition of parasite growth	dose dependent inhibition of parasite growth	9.61 ± 1.84	8.92 ± 1.07	dose dependent inhibition of parasite growth	
